Read-outs that look alike come from different tables or passages of the source.
Columns and labels:
[1] = in vivo; design: species or system cat; settings: for AUC(0-inf) / CL/F / Cmax / Tmax / Vd/F: both sexes
Text: In this prospective pharmacokinetic study, 6 client-owned stable CKD cats, 2 each from International Renal Interest Society (IRIS) stages II, III and IV, […] and 6 age-matched (within 6 months) healthy geriatric control cats (AMC) were enrolled by stratified convenience sampling. There were 4 spayed females and 2 neutered males in the CKD group and 3 spayed females and 3 neutered males in the AMC group. […] Diagnostic tests required before enrollment included a minimum database consisting of serum biochemistry profile, CBC, urinalysis, urine culture, blood pressure, and serum total thyroxine concentration. […] Exclusion criteria included other systemic illnesses, complications of CKD such as hypertension, pyelonephritis or ureteral obstruction, or decompensation of CKD requiring hospitalization and IV fluid therapy. The project was approved by the Institutional Animal Care and Use Committee at Colorado State University, and all owners gave written informed consent before participation. […] Samples were centrifuged within 10 minutes of collection and serum was harvested and stored at —80° C. until analysis. […] Pharmacokinetic analysis was performed using a non-compartmental method. Area under the curve to infinity (AUC∞), disappearance half-life (t½^λ), time to maximum serum concentration (Tmax), and maximum serum concentration (Cmax) were calculated. […] The terminal elimination rate was used for estimating the accumulation factor as the applicable kel, and the dosing interval (T) was set at 24 or 48 hours. Comparison of pharmacokinetic parameters between the CKD and AMC cat groups was performed using a Mann-Whitney U-test. Prism software© was used for all analyses.

[2] = Stability of compounded 1.88 mg mirtazapine capsules (LC/MS/MS); format: physicochemical; settings: compounded 1.88 mg capsules
Text: The method used is guaranteed to produce accurate compounding to within 10% of the target dose.

[3] = humans; cited from earlier work
[4] = tested on: cats; settings: cited from earlier work
[5] = tested on: CKD cats; assay: Effect of mirtazapine on weight, appetite, activity and vomiting in CKD cats; format: in vivo, cat; settings: 1.88 mg every other day for three weeks
Text: FIG. 1. […] FIG. 2. […] FIG. 3. […] FIG. 4.

[6] = tested on: young normal cats; settings: cited from earlier work
[7] = cited from earlier work

difference in AUC∞ between AMC cats and CKD cats [1]: statistically significant difference
AUC(0-inf) ([1]; po, 1.88 mg, Mean ± SD): 590 ± 185 ng·h/mL
AUC(0-inf) ([1]; po, 1.88 mg, Median): 561 ng·h/mL
CL/F ([1]; po, 1.88 mg, Mean ± SD): 13.2 mL/min/kg
CL/F ([1]; po, 1.88 mg, Median): 12.2 mL/min/kg
Cmax ([1]; po, 1.88 mg, Mean ± SD): 79.6 ± 21.7 ng/mL
Cmax ([1]; po, 1.88 mg, Median): 83.6 ng/mL
Tmax ([1]; po, 1.88 mg, Mean ± SD): 2 ± 1.5 h
Tmax ([1]; po, 1.88 mg, Median): 1 h
Vd/F ([1]; po, 1.88 mg, Mean ± SD): 13.9 ± 3.2 L
Vd/F ([1]; po, 1.88 mg, Median): 14.4 L
CL/F, Mean ± SD ([1]; both, po, 1.88 mg): 10.2 mL/min/kg
CL/F, Median ([1]; both, po, 1.88 mg): 10 mL/min/kg
Cmax, Mean ± SD ([1]; both, po, 1.88 mg): 110.6 ± 30.8 ng/mL
Cmax, Median ([1]; both, po, 1.88 mg): 109.5 ng/mL
AUC∞, Mean ± SD ([1]; po, 1.88 mg): 866.5 ± 257.9 ng·h/mL
AUC∞, Median ([1]; po, 1.88 mg): 828.4 ng·h/mL
Vd/F, Mean ± SD ([1]; po, 1.88 mg): 13.6 ± 2.0 L
Vd/F, Median ([1]; po, 1.88 mg): 13.4 L
stability as formulated [2]: at least 6 months
Structure (SMILES): CN1CCN2c3ncccc3Cc3ccccc3C2C1 (stereo not shown) [mirtazapine]
AUC in young men compared to women [3]: lower
other reported adverse effects (hyperexcitability, muscle tremors) [4]: mild and dose dependent
Effect on weight ([5]; p=0.002): statistically significant increase
Effect on activity ([5]; p=0.02): statistically significant increase
Effect on appetite score ([5]; p=0.02): statistically significant increase
Effect on vomiting ([5]; p=0.047): statistically significant decrease
food consumption as compared to placebo ([6]; 1.88 mg/cat): increased food consumption
food consumption as compared to placebo ([6]; 3.75 mg/cat): increased food consumption
appetite stimulation ([6]; dose of 1.88 mg): significantly stimulates appetite
mean AUC ([7]; normal cats, previously reported): 397 ng/mL/h
mean CL/F ([7]; young healthy cats): 18.3 mL/min/kg
